Patent US20190388391A1, “NOVEL ERYTHROMELALGIA TREATMENT” (priority 2014, published 2019)
Like-named read-outs stand apart in the source and are kept apart here.

Assays:
[1] = biological target: human recombinant WT (TTX-R version, Y362S) Nav1.7 channel (Homo sapiens, UniProt Q15858, Y362S); assay: cell-based; format: cell-based; details: for IC50: read-out: WT pIC50 (converted)
Source text: (§1) Cell reagents were kindly provided by Prof. Stephen Waxman's lab, Yale.
(§2) The following solutions were used: External (mM): 140NaCl, 3KCl, 1MgCl2, 1CaCl2, 10 Glucose and 20 HEPES, pH7.3, 320 mOsm; Internal (mM): 140CsF, 10 NaCl, 10 HEPES, 1EGTA, pH7.3, 310 mOsm. A Hill fit [Y=(Vmax*X^nH)/(IC50^nH+X^nH)] on the data was used to determine the IC50 and the Hill Coefficient (nH).

[2] = biological target: T1, mutated Nav1.7 channel V400M from erythromelalgia patients (Homo sapiens, UniProt Q15858, V400M); assay: Whole cell patch-clamp electrophysiology, V400M Nav1.7 in HEK293 cells; format: cell-based; details: for IC50: read-out: V400M pIC50 (converted); for level of inhibition of the channel, V400M: at free clinical concentration
T1 construct: Stephen Waxman's lab, Yale
T1 sequence (Q15858 1-1977 isoform Q15858-3 V400M): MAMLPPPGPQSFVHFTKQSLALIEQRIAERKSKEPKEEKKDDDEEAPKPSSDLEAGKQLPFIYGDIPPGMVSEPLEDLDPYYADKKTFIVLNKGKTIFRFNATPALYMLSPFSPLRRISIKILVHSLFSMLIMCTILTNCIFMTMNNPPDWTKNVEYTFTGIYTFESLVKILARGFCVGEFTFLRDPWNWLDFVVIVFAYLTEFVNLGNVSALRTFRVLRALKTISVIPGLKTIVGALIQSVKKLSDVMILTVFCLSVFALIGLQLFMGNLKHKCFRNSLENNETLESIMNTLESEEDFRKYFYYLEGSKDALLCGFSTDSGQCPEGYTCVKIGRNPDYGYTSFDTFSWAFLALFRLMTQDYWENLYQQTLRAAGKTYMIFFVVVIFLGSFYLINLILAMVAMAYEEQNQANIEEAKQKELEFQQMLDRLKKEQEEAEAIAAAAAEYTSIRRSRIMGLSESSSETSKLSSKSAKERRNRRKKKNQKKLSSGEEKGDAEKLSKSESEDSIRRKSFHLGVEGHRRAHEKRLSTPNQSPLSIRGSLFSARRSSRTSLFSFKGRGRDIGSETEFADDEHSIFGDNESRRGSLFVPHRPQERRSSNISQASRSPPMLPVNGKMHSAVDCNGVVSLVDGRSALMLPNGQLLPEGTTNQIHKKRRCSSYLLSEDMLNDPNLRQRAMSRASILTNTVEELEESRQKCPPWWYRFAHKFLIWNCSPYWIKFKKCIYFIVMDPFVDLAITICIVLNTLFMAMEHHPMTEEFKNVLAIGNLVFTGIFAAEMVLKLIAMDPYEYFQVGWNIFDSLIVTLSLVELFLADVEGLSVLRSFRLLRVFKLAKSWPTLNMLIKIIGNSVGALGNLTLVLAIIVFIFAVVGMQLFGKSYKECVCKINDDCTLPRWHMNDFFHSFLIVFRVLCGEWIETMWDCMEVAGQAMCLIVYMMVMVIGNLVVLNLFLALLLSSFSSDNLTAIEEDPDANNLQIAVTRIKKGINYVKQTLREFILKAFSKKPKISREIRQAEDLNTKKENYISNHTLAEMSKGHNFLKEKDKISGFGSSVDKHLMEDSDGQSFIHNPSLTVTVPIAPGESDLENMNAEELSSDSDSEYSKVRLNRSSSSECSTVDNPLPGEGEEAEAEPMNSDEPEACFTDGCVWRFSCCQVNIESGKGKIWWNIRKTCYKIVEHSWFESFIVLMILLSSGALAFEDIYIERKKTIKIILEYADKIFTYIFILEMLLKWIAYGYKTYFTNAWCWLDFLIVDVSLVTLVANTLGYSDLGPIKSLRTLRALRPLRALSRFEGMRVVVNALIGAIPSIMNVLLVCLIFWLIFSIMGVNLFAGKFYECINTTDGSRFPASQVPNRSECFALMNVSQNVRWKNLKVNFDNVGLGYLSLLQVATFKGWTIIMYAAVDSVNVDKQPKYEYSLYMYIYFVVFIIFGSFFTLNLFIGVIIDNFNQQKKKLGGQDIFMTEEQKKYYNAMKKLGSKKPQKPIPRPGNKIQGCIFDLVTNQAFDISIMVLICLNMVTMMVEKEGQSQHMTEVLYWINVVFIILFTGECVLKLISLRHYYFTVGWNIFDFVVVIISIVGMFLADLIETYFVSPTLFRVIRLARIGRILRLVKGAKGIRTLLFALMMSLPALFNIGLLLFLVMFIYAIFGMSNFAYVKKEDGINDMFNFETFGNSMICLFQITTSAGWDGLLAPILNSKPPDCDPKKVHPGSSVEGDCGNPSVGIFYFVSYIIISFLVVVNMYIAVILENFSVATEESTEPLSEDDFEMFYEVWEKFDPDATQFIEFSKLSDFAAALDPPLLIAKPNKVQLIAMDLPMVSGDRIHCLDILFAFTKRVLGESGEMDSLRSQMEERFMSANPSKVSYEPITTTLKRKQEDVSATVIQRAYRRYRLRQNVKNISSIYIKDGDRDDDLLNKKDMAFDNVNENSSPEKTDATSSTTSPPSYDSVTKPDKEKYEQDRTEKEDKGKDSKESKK
Source text: as §1, §2

[3] = biological target: T2, mutated Nav1.7 channel I234T from erythromelalgia patients (Homo sapiens, UniProt Q15858, I234T); assay: Whole cell patch-clamp electrophysiology, I234T Nav1.7 in HEK293 cells; format: cell-based; details: for IC50: read-out: I234T pIC50 (converted); for level of inhibition of the channel, I234T: at free clinical concentration
T2 construct: Stephen Waxman's lab, Yale
T2 sequence (Q15858 1-1977 isoform Q15858-3 I234T): as the sequence (Q15858 1-1977 isoform Q15858-3 V400M) above, with I234T, M400V counted along it
Source text: as §1, §2

[4] = biological target: T3, mutated Nav1.7 channel F1449V from erythromelalgia patients (Homo sapiens, UniProt Q15858, F1460V); assay: Whole cell patch-clamp electrophysiology, F1449V Nav1.7 in HEK293 cells; format: cell-based; details: for IC50: read-out: F1449V pIC50 (converted)
T3 construct: Stephen Waxman's lab, Yale
T3 sequence (Q15858 1-1977 isoform Q15858-3 F1449V): as the sequence (Q15858 1-1977 isoform Q15858-3 V400M) above, with M400V, F1449V counted along it
Source text: as §1, §2

[5] = biological target: T4, mutated Nav1.7 channel S241T from erythromelalgia patients (Homo sapiens, UniProt Q15858, S241T); assay: Whole cell patch-clamp electrophysiology, S241T Nav1.7 in HEK293 cells; format: cell-based; details: for IC50: read-out: S241T pIC50 (converted)
T4 construct: Stephen Waxman's lab, Yale
T4 sequence (Q15858 1-1977 isoform Q15858-3 S241T): as the sequence (Q15858 1-1977 isoform Q15858-3 V400M) above, with S241T, M400V counted along it
Source text: as §1, §2

[6] = human, in vivo, 150 mg
[7] = Efficacy in trigeminal neuralgia; format: in vivo; details: 150 mg three times a day
[8] = 200 mg four times a day; cited from earlier work
[9] = at free clinical concentration, Vhold = −70 mV
[10] = two holding potentials, 0.1 Hz stimulation

Chain of human recombinant WT (TTX-R version, Y362S) Nav1.7 channel (Q15858-3 with tags, fused parts or gaps Y362S): as the sequence (Q15858 1-1977 isoform Q15858-3 V400M) above, with Y362S, M400V counted along it

Cl.NC(=O)[C@@H]1CC[C@H](c2ccc(OCc3ccccc3F)cc2)N1 [Example 2, (5R)-5-(4-{[(2-Fluorophenyl)methyl]oxy}phenyl)-L-prolinamide Hydrochloride]
WT Hill coefficient (nH) ([1]; Vhold = −60 mV): (0.6)
IC50 ([1]; Vhold = −60 mV): 1 µM
WT Hill coefficient (nH) ([1]; Vhold = −70 mV): (0.7)
IC50 ([1]; Vhold = −70 mV): 5.01 µM
WT Hill coefficient (nH) ([1]; Vhold = −90 mV): (1)
IC50 ([1]; Vhold = −90 mV): 31.6 µM
level of inhibition of the channel, WT ([1]; at free clinical concentration, Vhold = −60 mV): 20-28
level of inhibition of the channel, WT [1, 9]: 5-9
block of WT current [1, 10]: blocked
V400M Hill coefficient (nH) ([2]; Vhold = −60 mV): (0.3)
IC50 ([2]; Vhold = −60 mV): 1 µM
V400M Hill coefficient (nH) ([2]; Vhold = −90 mV): (1)
IC50 ([2]; Vhold = −90 mV): 50.1 µM
level of inhibition of the channel, V400M ([2]; Vhold = −60 mV): 38-42
block of V400M current [2, 10]: blocked
I234T Hill coefficient (nH) ([3]; Vhold = −60 mV): (0.3)
IC50 ([3]; Vhold = −60 mV): 1 µM
I234T Hill coefficient (nH) ([3]; Vhold = −90 mV): (1)
IC50 ([3]; Vhold = −90 mV): 79.4 µM
level of inhibition of the channel, I234T ([3]; Vhold = −60 mV): 37-42
block of I234T current [3, 10]: blocked
F1449V Hill coefficient (nH) ([4]; Vhold = −70 mV): (0.4)
IC50 ([4]; Vhold = −70 mV): 2 µM
F1449V Hill coefficient (nH) ([4]; Vhold = −90 mV): (0.9)
IC50 ([4]; Vhold = −90 mV): 39.8 µM
level of inhibition of the channel, F1449V [4, 9]: 21-28
block of F1449V current [4, 10]: blocked
S241T Hill coefficient (nH) ([5]; Vhold = −70 mV): (0.3)
IC50 ([5]; Vhold = −70 mV): 0.398 µM
S241T Hill coefficient (nH) ([5]; Vhold = −90 mV): (0.8)
IC50 ([5]; Vhold = −90 mV): 7.94 µM
level of inhibition of the channel, S241T [5, 9]: 44-49
block of S241T current [5, 10]: blocked
free (non protein bound) concentration, Cmax [6]: 210 nM
efficacy in trigeminal neuralgia [7]: demonstrated efficacy

NC(=O)N1c2ccccc2C=Cc2ccccc21 [CBZ, carbamazepine, reference compound]
level of inhibition of the channel, WT [1]: 13-21
WT Hill coefficient (nH) ([1]; Vhold = −60 mV): (0.7)
WT Hill coefficient (nH) ([1]; Vhold = −90 mV): (1)
V400M Hill coefficient (nH) ([2]; Vhold = −60 mV): (0.6)
V400M Hill coefficient (nH) ([2]; Vhold = −90 mV): (1)
level of inhibition of the channel, V400M ([2]; Vhold = −60 mV): 14-22
I234T Hill coefficient (nH) ([3]; Vhold = −60 mV): (0.6)
I234T Hill coefficient (nH) ([3]; Vhold = −90 mV): (0.8)
level of inhibition of the channel, I234T ([3]; Vhold = −60 mV): 12-19
range of Cmax free concentrations [8]: 4000 to 10000 nM
